#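 Where inhibition never reached the appropriate level, the endpoint shown equals the highest concentration tested. Otherwise, values were interpolated linearly from a five-concentration, 48-hour dose response in 96-well plates. At the TGI there is no net growth.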
# How the values were obtained:
# Assay in all cases: growth of human tumour cells (NCI), 48 h
# [1] = system: OVCAR-8 ovarian
# [2] = system: A549 NSCLC
# [3] = system: CAKI-1 renal
# [4] = system: OVCAR-5 ovarian
# [5] = system: SK-OV-3 ovarian
# [6] = system: HOP-62 NSCLC
# [7] = system: NCI-H23 lung
# [8] = system: KM12 colon
# [9] = system: MDA-MB-435
# [10] = system: UO-31 renal
# [11] = system: SK-MEL-2 melanoma
# [12] = system: K-562 leukemia
# [13] = system: HT29 colon
# [14] = system: RPMI-8226 leukemia
Structure (SMILES),TGI [1] [µM],TGI [2] [µM],TGI [3] [µM],TGI [4] [µM],TGI [5] [µM],TGI [6] [µM],TGI [7] [µM],TGI [8] [µM],TGI [9] [µM],TGI [10] [µM],TGI [11] [µM],TGI [12] [µM],TGI [13] [µM],TGI [14] [µM]
C=CCN(CC=C)Cn1c(=S)sc2ccccc21,> 100,> 100,30.7,> 100,> 100,> 100,> 100,> 100,> 100,> 100,> 100,,,
COC1(C)CC2N(C(=O)c3ccccc3)N=C(c3ccccc3)CC2(C)O1 (configuration not stated),> 100,> 100,> 100,> 100,> 100,> 100,,> 100,,> 100,> 100,> 100,> 100,> 100
CC1(C)CC2(C)CC1CC2O (configuration not stated),> 100,> 100,> 100,> 100,> 100,> 100,> 100,> 100,> 100,> 100,,> 100,> 100,> 100
COC(=O)C(C#N)=C1c2ccccc2Oc2ccccc21,> 100,> 100,> 100,> 100,> 100,> 100,> 100,> 100,,> 100,> 100,> 100,> 100,49.3
CC1C(c2cc(C(C)(C)C)c(O)c(C(C)(C)C)c2)c2cc3c(cc2OC1N1CCOCC1)OCO3 (configuration not stated),60,48,,> 100,,33.4,94.9,> 100,68.2,29.8,67.3,> 100,> 100,> 100
O=C1NC(c2ccc(O)cc2)C2CCC1C2 (configuration not stated),> 100,> 100,> 100,> 100,> 100,> 100,> 100,> 100,,> 100,> 100,> 100,> 100,> 100
O=c1c2c3ccccc3[nH]c2c2cccc3c2n1CCC3,> 100,> 100,,> 100,> 100,> 100,> 100,> 100,> 100,,,> 100,> 100,
CCOC(=O)c1cc(C2(O)CCN(Cc3ccccc3)C2=O)c(-c2cc(C)no2)[nH]1 (configuration not stated),> 100,> 100,74.3,> 100,,> 100,> 100,> 100,> 100,> 100,> 100,> 100,,> 100
Cc1ccccc1C(C#N)C(=O)C(=O)Nc1nc([N+](=O)[O-])cs1 (configuration not stated),> 100,> 100,> 100,> 100,> 100,> 100,> 100,> 100,,> 100,,,> 100,
O=C1CCCN(c2ccccc2)N1,> 100,> 100,> 100,> 100,> 100,> 100,,> 100,,> 100,> 100,> 100,> 100,> 100
O=C(/C(=C(/Br)I)c1ccccc1)c1ccccc1,48.3,> 100,> 100,> 100,> 100,,> 100,38,82.6,41.3,,39.3,36.1,47.2
COc1ccc(-c2c(C#N)c(N)n(C3OC(CO)C(O)C(O)C3O)c(=S)c2C#N)cc1 (configuration not stated),> 100,> 100,> 100,> 100,> 100,> 100,> 100,> 100,,> 100,> 100,> 100,> 100,> 100
COc1cc2c(cc1OCCCCCOc1cc3c(cc1OC)C(=O)N1CCC[C@H]1C(=O)N3)N=C[C@@H]1CCCN1C2=O,31.5,> 100,4.25,,,26.3,1.89,37.1,0.284,,0.666,,,0.179
COC(=O)c1cc(CC(C)C)c2c(c1)[nH]c1ccccc12,> 100,> 100,> 100,> 100,> 100,,> 100,> 100,,> 100,> 100,> 100,> 100,
COC(=O)C1(Cc2ccccc2)Cc2cc3c(cc2C1=O)CCC3 (configuration not stated),> 100,> 100,,> 100,> 100,> 100,> 100,81.6,36.9,> 100,53.1,81.8,36,52.5
O=c1[nH]cnc2c(C3OC(CO)C(O)C3O)c[nH]c12 (configuration not stated),> 100,> 100,> 100,> 100,> 100,> 100,> 100,> 100,> 100,> 100,,> 100,> 100,> 100
CCOC(=O)C1=C(C)N(c2ccccc2)C2=C(C(=O)N(c3ccccc3)C2c2ccccc2)C1c1ccccc1 (configuration not stated),> 100,> 100,> 100,> 100,> 100,> 100,> 100,> 100,,> 100,> 100,> 100,> 100,> 100
Cc1cc(-c2nc3ccccc3s2)ccc1NS(=O)(=O)O,> 100,> 100,> 18.3,> 100,> 100,> 100,> 100,> 55.4,> 100,> 100,,> 100,> 100,> 10.5
c1ccc(C[P+]2(c3ccccc3)c3ccccc3-c3ccccc32)cc1,> 100,> 100,> 100,,> 100,> 100,> 100,> 100,> 100,> 100,,> 100,,> 100

Structure (SMILES),TGI [1] [µM],TGI [2] [µM],TGI [3] [µM],TGI [4] [µM],TGI [5] [µM],TGI [6] [µM],TGI [7] [µM],TGI [8] [µM],TGI [9] [µM],TGI [10] [µM],TGI [11] [µM],TGI [12] [µM],TGI [13] [µM],TGI [14] [µM]
COc1ccc(Nc2[nH]c(C(C)=O)c(N)c2C(=S)Nc2ccccc2)cc1,> 100,> 100,> 100,> 100,> 100,> 100,> 100,> 100,> 100,> 100,> 100,> 100,> 100,
O=C1CC2C=CC(O)C(C1)C2 (configuration not stated),> 100,,,> 100,> 100,> 100,> 100,> 100,> 100,> 100,> 100,> 100,> 100,> 100
CCOC(=O)c1cc(=C2\CCN(CC(C)CC)C2=S)/c(=C(/O)CC)[nH]1 (configuration not stated),56.6,> 100,26.4,,48.4,,33.6,32,29.6,35.4,44.4,37.8,48,25.4
O=C(NS(=O)(=O)Nc1ccc(Cl)cc1)OCc1ccc(Cl)cc1Cl,90.7,52.6,,70.3,48.2,> 100,52.3,57.2,50.9,44.2,90.2,> 100,51.2,> 100
O=C(/C=C/c1ccccc1)/C=C/c1ccccc1O,30.6,54.3,64.6,65.3,57.5,> 100,49.3,31.7,,31.8,> 100,38.9,47.6,43.8
COc1cc(COC(=O)N[C@H](C(=O)O)C(C)(C)C)c([N+](=O)[O-])cc1OC,> 100,> 100,,> 100,> 100,> 100,> 100,> 100,> 100,> 100,,> 100,> 100,> 100
C[N+](C)(C)CC(=O)N/N=c1\cc(C(=O)Nc2ccc(N=O)cc2C#N)oc2cc(O)ccc12,> 100,> 100,> 100,> 100,> 100,> 100,> 100,> 100,,> 100,> 100,> 100,> 100,
O=C1O[C@@H](c2ccccc2)C[C@@H]1CN1CCOCC1,> 100,> 100,> 100,> 100,> 100,> 100,64.1,> 100,,> 100,> 100,> 100,> 100,> 100
O=C1CC2(C[C@@H]3CCCCCCCCC[C@@H](C3)C2)N1 (some centres not stated),33.5,38.4,25.4,29.6,28.4,32.8,31.3,34.6,,27.8,37.7,55.1,26.9,51.1
N#CCCN(c1ccc(C=Nc2cccc([N+](=O)[O-])c2)cc1)S(=O)(=O)c1ccccc1,> 100,> 100,> 100,,> 100,> 100,> 100,> 100,,> 100,> 100,> 100,> 100,> 100
O=C1CC(C(O)CO)CC(=O)N1 (configuration not stated),> 100,> 100,> 100,> 100,,> 100,> 100,> 100,> 100,> 100,,> 100,> 100,> 100
COC1O[C@H]2CCN(C(=O)OCc3ccccc3)[C@H]2[C@H]1OCc1ccccc1 (some centres not stated),> 100,> 100,> 100,> 100,55.3,> 100,> 90.5,> 100,,97.7,> 100,> 100,> 100,> 100
COc1ccc(C2C(Cl)C(=O)N2NC(=O)c2ccc(NC(C)=O)cc2)cc1 (configuration not stated),> 100,> 100,> 100,> 100,> 100,> 100,> 100,,,> 100,> 100,> 100,> 100,
Cc1c(Cl)cccc1NC(=O)C(=O)C1C(=O)CC(C)(C)CC1=O,> 100,> 100,> 100,> 100,> 100,> 100,> 100,> 100,,> 100,> 100,> 100,> 100,> 100
CCOC(=O)C(OCC1CC=CCC1)Sc1ccccc1 (configuration not stated),> 100,> 100,> 100,> 100,> 100,> 100,> 100,> 100,,> 100,> 100,> 100,> 100,> 100
CCN(CC)CCn1c2cc3c(cc2c(=O)c2cccnc21)OCCO3,> 10,> 10,> 10,,> 10,> 10,> 10,> 10,> 10,,,,> 10,> 10
COc1ccc2nc(-c3ccc(OCc4ccccc4)cc3)ccc2c1,> 100,> 100,,> 100,> 100,> 100,> 100,> 100,,> 100,,> 100,> 100,> 100
Cc1cccc(N2C(=O)C3ON(C(C(N)=O)c4ccccc4)C(c4c5ccccc5c(Cl)c5ccccc45)C3C2=O)c1C (configuration not stated),25.1,48.5,27.3,20.7,> 50,24.4,32.1,8.08,14.6,24.2,20,> 50,14.9,

# Source: PubChem BioAssay (NCI)
